Reference: article PMC4965013, “Open Source Drug Discovery with the Malaria Box Compound Collection for Neglected Diseases and Beyond” (PLoS Pathogens, 2016)
pEC50, pIC50: −log10 of the molar value. Read-outs that look alike come from different tables or passages of the source.

Assays:
P. falciparum = assay: EC50 listed in S2 Table Metabolomics (used to set the concentration tested); type: cell-based; conditions: Plasmodium falciparum; EC50 used for Factor_XEC50 in metabolomics; read-out: EC50_nM
[1] = tested on: P. falciparum 3D7 trophozoites; assay: Metabolomic fingerprint profiling LC-MS; type: cell-based, Plasmodium falciparum; set-up: UDP-D-glucose / ADP-D-glucose: unit not given here
P. falciparum 3D7 = assay: [3H]-hypoxanthine growth inhibition, modified HCO3- or O2; type: cell-based; conditions: for pIC50: Plasmodium falciparum
[2] = metabolite level change after treatment

Compound: O=C(NCC(c1ccsc1)N1CCCCCC1)c1ccc(C(F)(F)F)cc1 (centres unmarked) [MMV396672]
- pEC50 (P. falciparum): 6.36
- Acetyllysine ([1]; S2 Table Metabolomics, metabolite Acetyllysine): -0.3412
- N-acetyl-L-ornithine ([1]; S2 Table Metabolomics, metabolite N-acetyl-L-ornithine): 0.04406
- N-carbamoyl-L-aspartate ([1]; S2 Table Metabolomics, metabolite N-carbamoyl-L-aspartate): 1.501
- NADPH ([1]; S2 Table Metabolomics, metabolite NADPH): 1.59
- dAMP ([1]; S2 Table Metabolomics, metabolite dAMP): -0.1547
- dCMP ([1]; S2 Table Metabolomics, metabolite dCMP): -0.6707
- dTDP ([1]; S2 Table Metabolomics, metabolite dTDP): -0.2295
- dTMP ([1]; S2 Table Metabolomics, metabolite dTMP): -0.1132
- dTTP ([1]; S2 Table Metabolomics, metabolite dTTP): -0.02683
- dihydroorotate ([1]; S2 Table Metabolomics, metabolite dihydroorotate): 1.3113
- orotate ([1]; S2 Table Metabolomics, metabolite orotate): -0.2374
- DLH ([1]; S2 Table Metabolomics, peptide DLH): 0.2454
- DLS/SDL/SID ([1]; S2 Table Metabolomics, peptide DLS/SDL/SID): 0.4945
- PD ([1]; S2 Table Metabolomics, peptide PD): -0.2062
- PEE ([1]; S2 Table Metabolomics, peptide PEE): 0.3834
- PVNF ([1]; S2 Table Metabolomics, peptide PVNF): 0.4792
- 3-phosphoglycerate ([1]; metabolite 3-phosphoglycerate, S2 Table Metabolomics): 0.01662
- ADP-D-glucose ([1]; metabolite ADP-D-glucose, S2 Table Metabolomics): 0.1495
- ATP ([1]; metabolite ATP, S2 Table Metabolomics): 0.06805
- CDP ([1]; metabolite CDP, S2 Table Metabolomics, change in metabolite level after compound treatment): -0.3083
- D-sedoheptulose-1/7-phosphate ([1]; metabolite D-sedoheptulose-1/7-phosphate, S2 Table Metabolomics, change in metabolite level after compound treatment): -0.1874
- FAD ([1]; metabolite FAD, S2 Table Metabolomics): 0.01705
- GMP ([1]; metabolite GMP, S2 Table Metabolomics, change in metabolite level after compound treatment): -0.121
- NAD+ ([1]; metabolite NAD+, S2 Table Metabolomics): -0.07697
- NADP+ ([1]; metabolite NADP+, S2 Table Metabolomics): 0.1144
- Octoluse Bisphosphate ([1]; metabolite Octoluse Bisphosphate, S2 Table Metabolomics, change in metabolite level after compound treatment): -0.0874
- Pyroglutamic acid ([1]; metabolite Pyroglutamic acid, S2 Table Metabolomics): -0.2718
- UDP-D-glucose ([1]; metabolite UDP-D-glucose, S2 Table Metabolomics): 0.05361
- UDP-D-glucuronate ([1]; metabolite UDP-D-glucuronate, S2 Table Metabolomics): 0.1556
- UDP-N-acetyl-glucosamine ([1]; metabolite UDP-N-acetyl-glucosamine, S2 Table Metabolomics): -0.04862
- UDP ([1]; metabolite UDP, S2 Table Metabolomics, change in metabolite level after compound treatment): -0.327
- UMP ([1]; metabolite UMP, S2 Table Metabolomics, change in metabolite level after compound treatment): -1.306
- UTP ([1]; metabolite UTP, S2 Table Metabolomics, change in metabolite level after compound treatment): -0.1422
- a-ketoglutarate ([1]; metabolite a-ketoglutarate, S2 Table Metabolomics): -0.6396
- citrate/isocitrate ([1]; metabolite citrate/isocitrate, S2 Table Metabolomics, change in metabolite level after compound treatment): -0.6773
- cytidine ([1]; metabolite cytidine, S2 Table Metabolomics): 0.6424
- dATP ([1]; metabolite dATP, S2 Table Metabolomics): 0.05116
- dGMP/AMP ([1]; metabolite dGMP/AMP, S2 Table Metabolomics, change in metabolite level after compound treatment): -0.08656
- fumarate ([1]; metabolite fumarate, S2 Table Metabolomics, change in metabolite level after compound treatment): -0.2118
- glucose-1/6-phosphate ([1]; metabolite glucose-1/6-phosphate, S2 Table Metabolomics, change in metabolite level after compound treatment): 0.01846
- glycerate ([1]; metabolite glycerate, S2 Table Metabolomics, change in metabolite level after compound treatment): -1.2197
- guanine ([1]; metabolite guanine, S2 Table Metabolomics, change in metabolite level after compound treatment): -0.7457
- guanosine ([1]; metabolite guanosine, S2 Table Metabolomics, change in metabolite level after compound treatment): -1.987
- hypoxanthine ([1]; metabolite hypoxanthine, S2 Table Metabolomics): 0.2737
- indole ([1]; metabolite indole, S2 Table Metabolomics): 0.1693
- inosine ([1]; metabolite inosine, S2 Table Metabolomics, change in metabolite level after compound treatment): -0.393
- 2_3-Diphosphoglyceric acid [1, 2]: -0.1323
- 4-phosphopantothenate [1, 2]: -0.391
- 6-phospho-D-gluconate [1, 2]: -0.02288
- FMN [1, 2]: 0.06346
- IMP [1, 2]: -0.1805
- Pyrophosphate [1, 2]: -0.05249
- Sedoheptoluse bisphosphate [1, 2]: -0.2083
- cyclic-AMP [1, 2]: -0.07949
- glutathione disulfide [1, 2]: -0.4263
- lactate [1, 2]: -0.6757
- myo-inositol [1, 2]: -1.04
- nicotinate ([1]; metabolite nicotinate, S2 Table Metabolomics): -1.005
- ornithine ([1]; metabolite ornithine, S2 Table Metabolomics): 0.1454
- phosphoenolpyruvate ([1]; metabolite phosphoenolpyruvate, S2 Table Metabolomics): -0.3004
- pyruvate ([1]; metabolite pyruvate, S2 Table Metabolomics, change in metabolite level after compound treatment): -1.162
- ribose-phosphate ([1]; metabolite ribose-phosphate, S2 Table Metabolomics): 0.03374
- sarcosine/alanine ([1]; metabolite sarcosine/alanine, S2 Table Metabolomics, change in metabolite level after compound treatment): -0.5204
- sn-glycerol-3-phosphate ([1]; metabolite sn-glycerol-3-phosphate, S2 Table Metabolomics): -0.07409
- succinate/methylmalonic acid ([1]; metabolite succinate/methylmalonic acid, S2 Table Metabolomics, change in metabolite level after compound treatment): -0.4318
- uridine ([1]; metabolite uridine, S2 Table Metabolomics, change in metabolite level after compound treatment): -0.8839
- xanthosine ([1]; metabolite xanthosine, S2 Table Metabolomics, change in metabolite level after compound treatment): -0.8196
- fold change (IC50reduced/IC50normal) (P. falciparum 3D7): 2.6
- pIC50 (P. falciparum 3D7; 3D7, read-out: P. falciparum 3D7 IC50 HCO3- (2g/L), standard media): 6.37
- pIC50 (P. falciparum 3D7; 3D7, HCO3- reduced media, read-out: P. falciparum 3D7 IC50 HCO3- reduced): 5.95
